Measured values taken from US9085584B2, “Substituted pyrido[3,2-E][1,2,4]-triazolo[4,3-A]pyrazines for the treatment of central nervous system disorders” (Boehringer Ingelheim International GmbH, priority 2012, dated 2015).

Experiments:
PDE 2A = PDE 2A (Homo sapiens (Human), UniProt O00408); test: PDE 2A assay with fluorescent substrate (IMAP, fluorescence polarization); type: biochemical; settings: read-out: PDE2 IC50
Procedure: (§1) Another, non radioactive, in-vitro assay was performed as follows • c) Phosphodiesterase (PDE) 2A and 10 Assay with Fluorescent Substrate Assay Principle:
(§2) The PDE reaction cleaves cAMP to AMP. The IMAP system (Molecular Device) using fluorescence polarization (FP) as detection principle was used to measure enzyme activity. A fluorescent labeled cAMP was used as substrate for the reaction, generating a labeled AMP. The fluorescent AMP binds specifically to the large M(III)-based nano-particles which reduces the rotational speed of the substrate and thus increases its polarization.
(§3) The inhibition of PDE 2A or 10 enzyme activity was assessed using IMAP-Phosphodiesterase-cAMP fluorescence labeled substrate (Molecular Devices, Order No. R7506), IMAP TR-FRET screening express (Molecular Devices, Order No. R8160, the TR-FRET component will not be used) and PDE 2A or PDE10 protein expressed upon baculovirus infection in SF9 cells.
(§4) All reactions were performed in 384 well plates, Perkin Elmer black optiplates and IMAP reaction buffer with 0.1% Tween20 (kit component)
(§5) Compounds were serial diluted in DMSO. With an intermediate dilution step with reaction buffer DMSO concentration was reduced to achieve 1% DMSO in the assay reaction. Setup of the assay started with 10 μl enzyme (˜10 ng/well, depending on prep. batch), 5 μl compound, reaction was started by addition of 5 μl labeled cAMP (30 nM, final concentration), immediately mixed for 15 seconds on a Eppendorf mixmate (2000 rpm) followed by an incubation at room temperature for 90 minutes in the dark. Reaction is stopped by adding of 60 μl binding buffer for FP/cAMP (kit component).
(§6) Each assay plate contained wells with vehicle controls (1% DMSO) for the measurement of non-inhibited reaction (=100% control) and wells without enzyme as 0% controls.

PDE10 = PDE10 (Homo sapiens (Human), UniProt Q9Y233); test: PDE10 assay with fluorescent substrate (IMAP, fluorescence polarization); type: biochemical
PDE10, sequence (Q9Y233 whole entry, species assumed): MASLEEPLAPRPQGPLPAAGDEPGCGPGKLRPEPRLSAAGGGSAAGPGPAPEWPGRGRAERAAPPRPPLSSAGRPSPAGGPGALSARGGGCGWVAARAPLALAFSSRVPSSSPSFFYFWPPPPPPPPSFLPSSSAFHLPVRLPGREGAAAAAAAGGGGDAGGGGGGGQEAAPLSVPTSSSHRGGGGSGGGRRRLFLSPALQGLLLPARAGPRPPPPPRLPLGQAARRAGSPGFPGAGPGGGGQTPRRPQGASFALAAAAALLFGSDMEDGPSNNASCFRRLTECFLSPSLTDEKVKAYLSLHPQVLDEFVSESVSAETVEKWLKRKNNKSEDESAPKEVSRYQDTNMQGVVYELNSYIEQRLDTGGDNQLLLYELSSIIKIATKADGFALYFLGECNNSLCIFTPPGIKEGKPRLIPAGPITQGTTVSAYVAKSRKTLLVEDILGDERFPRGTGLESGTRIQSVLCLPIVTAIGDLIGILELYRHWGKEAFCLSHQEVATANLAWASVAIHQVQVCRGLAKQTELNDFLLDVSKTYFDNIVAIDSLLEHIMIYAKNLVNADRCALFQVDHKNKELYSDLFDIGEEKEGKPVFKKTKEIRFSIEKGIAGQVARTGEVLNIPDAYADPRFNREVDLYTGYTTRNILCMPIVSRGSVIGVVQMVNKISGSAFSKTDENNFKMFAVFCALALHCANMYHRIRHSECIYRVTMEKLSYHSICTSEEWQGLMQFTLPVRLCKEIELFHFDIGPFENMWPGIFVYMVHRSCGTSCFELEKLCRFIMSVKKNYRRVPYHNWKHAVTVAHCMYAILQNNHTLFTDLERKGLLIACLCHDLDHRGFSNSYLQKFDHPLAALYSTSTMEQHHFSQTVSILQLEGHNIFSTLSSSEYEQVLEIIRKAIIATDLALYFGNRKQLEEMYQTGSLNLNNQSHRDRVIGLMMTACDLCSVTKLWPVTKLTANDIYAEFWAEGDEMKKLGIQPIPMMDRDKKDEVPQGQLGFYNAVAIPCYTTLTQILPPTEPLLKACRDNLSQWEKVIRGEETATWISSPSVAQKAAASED
Procedure: as §1, §2, §3, §4, §5, §6

[1] = Metabolic stability in pooled liver microsomes; type: in vitro ADME, human; settings: 1 μM test compound, 37° C.; for Half-life - t½: human liver microsomes
Procedure: The metabolic stability of the compounds according to the invention has been investigated as follows:
The metabolic degradation of the test compound was assayed at 37° C. with pooled liver microsomes from various species. The final incubation volume of 100 μl per time point contains TRIS buffer pH 7.6 at room temperature (0.1 M), magnesium chloride (5 mM), microsomal protein (1 mg/mL for human and dog, 0.5 mg/mL for other species) and the test compound at a final concentration of 1 μM. Following a short preincubation period at 37° C., the reactions were initiated by addition of betanicotinamide adenine dinucleotide phosphate, reduced form (NADPH, 1 mM), and terminated by transferring an aliquot into solvent after different time points. […] The half-life was determined by the slope of the semi-logarithmic plot of the concentration-time profile.

hERG channel = hERG channel (Homo sapiens (Human), UniProt Q12809); test: hERG-channel assay (whole-cell patch clamp, transfected HEK293 cells); type: cell-based; settings: HEK293 cells stably transfected with hERG cDNA, 35° C.
hERG channel, sequence (Q12809 whole entry): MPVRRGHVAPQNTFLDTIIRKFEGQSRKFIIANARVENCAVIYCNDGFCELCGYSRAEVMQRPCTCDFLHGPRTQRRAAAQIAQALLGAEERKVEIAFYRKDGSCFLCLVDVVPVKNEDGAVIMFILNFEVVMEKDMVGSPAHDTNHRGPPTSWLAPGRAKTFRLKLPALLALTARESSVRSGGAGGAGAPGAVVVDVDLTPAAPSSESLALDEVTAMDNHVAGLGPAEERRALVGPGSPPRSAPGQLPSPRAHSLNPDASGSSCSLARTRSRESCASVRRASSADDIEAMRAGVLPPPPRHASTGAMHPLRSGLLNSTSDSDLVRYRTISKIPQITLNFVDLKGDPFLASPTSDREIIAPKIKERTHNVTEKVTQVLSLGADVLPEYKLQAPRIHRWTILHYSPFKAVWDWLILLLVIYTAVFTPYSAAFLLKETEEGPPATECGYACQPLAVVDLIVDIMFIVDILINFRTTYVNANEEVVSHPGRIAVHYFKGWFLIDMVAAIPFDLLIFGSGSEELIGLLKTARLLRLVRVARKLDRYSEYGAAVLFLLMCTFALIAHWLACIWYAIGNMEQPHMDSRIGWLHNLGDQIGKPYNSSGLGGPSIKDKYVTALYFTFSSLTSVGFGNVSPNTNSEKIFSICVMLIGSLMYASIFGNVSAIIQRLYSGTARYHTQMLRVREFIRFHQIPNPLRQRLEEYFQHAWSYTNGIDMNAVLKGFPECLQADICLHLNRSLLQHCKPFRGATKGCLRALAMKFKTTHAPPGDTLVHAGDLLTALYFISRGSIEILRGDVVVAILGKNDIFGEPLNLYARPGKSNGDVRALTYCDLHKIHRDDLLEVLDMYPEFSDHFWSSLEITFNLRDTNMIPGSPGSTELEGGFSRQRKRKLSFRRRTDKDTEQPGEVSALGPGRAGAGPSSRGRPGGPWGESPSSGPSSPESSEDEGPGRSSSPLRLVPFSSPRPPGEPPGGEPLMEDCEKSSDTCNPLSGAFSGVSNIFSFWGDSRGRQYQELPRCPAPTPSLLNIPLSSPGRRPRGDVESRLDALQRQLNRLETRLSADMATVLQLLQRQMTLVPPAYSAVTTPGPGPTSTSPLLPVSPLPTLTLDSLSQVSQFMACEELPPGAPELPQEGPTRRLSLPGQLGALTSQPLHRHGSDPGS
Source text: hERG (Human Ether-à-go-go-Related Gene)-Channel Assay
hERG channel inhibition of compounds of the present invention has been investigated as follows:
HEK (human embryonic kidney) 293 cells were stably transfected with hERG cDNA.
Cells were superfused with a bath solution containing (mM): NaCl (137), KCl (4.0), MgCl2 (1.0), CaCl2 (1.8), Glucose (10), HEPES (10), pH 7.4 with NaOH. Patch pipettes were made from borosilicate glass tubing using a horizontal puller and filled with pipette solution containing (mM): K-aspartate (130), MgCl2 (5.0), EGTA (5.0), K2ATP (4.0), HEPES (10.0), pH 7.2 with KOH. Resistance of the microelectrodes was in the range between 2 and 5 MΩ.
Stimulation and recording:
Membrane currents were recorded using an EPC-10 patch clamp amplifier and PatchMaster software. hERG-mediated membrane currents were recorded at 35° C., using the whole-cell configuration of the patch-clamp technique. […] During each inter-pulse interval 4 pulses scaled down by a factor of 0.2 were recorded for a P/n leak subtraction procedure. […]
The different concentrations of the test compound were applied sequentially on each of the different cells investigated. A steady state level of baseline current was measured for at least 6 sweeps prior to the application of the first test compound concentration. […]
Peak current amplitudes were measured 3 ms after the ramp to +40 mV. […]

[2] = Animal experiments and sample analysis: plasma, brain and CSF concentration; type: in vivo; settings: rat, 2 h between administration and CSF sampling
Procedure: In-vivo Effect: Animal Experiments and Sample Analysis (CSF):
Test compounds were administered to animals (rat) different routes at doses of 10.0 or 5 μmol/kg, (both oral and intravenous). After compound administration, the animals were sacrificed in a CO2 chamber and CSF samples were carefully collected by puncture of the cisterna magna. Immediately after CSF sampling, blood was taken by heart puncture and brains were dissected out. Blood was collected in EDTA-coated microvettes and plasma was prepared by centrifugation. Concentration of the test compounds in plasma, CSF or brain homogenate was determined using HPLC-MS-MS.

PDE 10A = PDE 10A (Homo sapiens (Human), UniProt Q9Y233); test: Radioactive PDE10 assay ([3H]cAMP SPA); type: biochemical
PDE 10A, sequence (Q9Y233 whole entry, species assumed): as the sequence (Q9Y233 whole entry, species assumed) above
Procedure: Into a 384 well plate (OptiPlate, white), the following components are pipetted (either manually or using automated pipetting devices): • 20 μl test-compound solution (test compound diluted in assay buffer at twofold the desired concentration) • +10 μl PDE 10A preparation (enzyme diluted in assay buffer to a concentration of 0.3 ng/μl protein) • +10 μl cAMP tracer (diluted in assay buffer to a concentration of 80 nM cAMP, specific activity ˜4 mCi/I)
After addition of all 3 components the plates are shortly spun and incubated at room temperature for 60 min. The reaction is stopped by the addition of 20 μl Yttrium SPA PDE Beads containing 18 mM zinc sulphate in water
PDE 10A protein is expressed upon baculovirus infection in SF9 cells. The cells have been incubated upon infection for ˜3 days and protein production was confirmed by Western Blot. The cells were collected by centrifugation and the pellet frozen in liquid nitrogen before it was resuspended in PBS containing 1% Triton X-100 and protease inhibitors. After 45 min incubation on ice, the cell debris was removed by centrifugation (13.000 rpm, 30 min).

PDE 2A, sequence (O00408 whole entry, species assumed): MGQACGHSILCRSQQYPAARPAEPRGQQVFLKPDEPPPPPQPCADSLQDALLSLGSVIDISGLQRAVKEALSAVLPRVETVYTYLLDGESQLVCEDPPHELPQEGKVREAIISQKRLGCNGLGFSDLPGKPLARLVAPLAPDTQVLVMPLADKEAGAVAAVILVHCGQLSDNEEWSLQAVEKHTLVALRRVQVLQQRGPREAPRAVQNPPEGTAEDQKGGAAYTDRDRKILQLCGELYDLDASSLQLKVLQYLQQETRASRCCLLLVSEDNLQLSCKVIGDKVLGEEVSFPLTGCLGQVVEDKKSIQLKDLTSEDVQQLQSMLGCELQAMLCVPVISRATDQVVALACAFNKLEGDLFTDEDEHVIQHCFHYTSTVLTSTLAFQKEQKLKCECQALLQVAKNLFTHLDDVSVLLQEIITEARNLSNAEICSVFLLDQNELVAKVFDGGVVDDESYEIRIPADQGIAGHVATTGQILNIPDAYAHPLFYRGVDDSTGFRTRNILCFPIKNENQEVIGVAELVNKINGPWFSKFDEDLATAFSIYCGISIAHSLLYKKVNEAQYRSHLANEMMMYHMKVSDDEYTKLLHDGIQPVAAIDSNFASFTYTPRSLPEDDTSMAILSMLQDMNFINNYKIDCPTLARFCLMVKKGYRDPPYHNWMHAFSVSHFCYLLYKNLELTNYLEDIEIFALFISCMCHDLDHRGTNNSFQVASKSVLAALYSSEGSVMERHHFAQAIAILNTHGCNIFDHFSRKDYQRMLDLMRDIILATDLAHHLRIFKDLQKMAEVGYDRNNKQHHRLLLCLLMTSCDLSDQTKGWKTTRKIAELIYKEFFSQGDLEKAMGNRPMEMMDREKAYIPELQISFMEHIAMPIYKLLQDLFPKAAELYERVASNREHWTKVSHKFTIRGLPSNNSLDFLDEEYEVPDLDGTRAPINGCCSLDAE

| IC50 (PDE 2A) | IC50 (PDE10) | Structure (SMILES) | other results |
| --- | --- | --- | --- |
| 11 nM | 10000 nM | Cc1nc2ccc(C(F)(F)F)nc2n2c(-c3cc(C4(O)CCCOC4)ccc3Cl)nnc12 (single isomer, unassigned) [Example 114b] |  |
| 9 nM |  | Cc1nc2ccc(C(F)(F)F)nc2n2c(-c3cc(C4(O)CCCOC4)ccc3Cl)nnc12 (single isomer, unassigned) [Example 114a] |  |
| 39 nM |  | Cc1nc2ccc(C(F)(F)F)nc2n2c(-c3cc(C4(O)CCOC4)ccc3Cl)nnc12 (racemic) [Example 115] |  |
| 45 nM | 10000 nM | Cc1nc2ccc(C(F)(F)F)nc2n2c(-c3cc(C4(O)CCOC4)ccc3Cl)nnc12 (single isomer, unassigned) [Example 115b] |  |
| 25 nM | 2600 nM | Cc1nc2cccnc2n2c(-c3cc(C4(O)CCCOC4)ccc3Cl)nnc12 (single isomer, unassigned) [Example 112a] |  |
| 80 nM | 5300 nM | Cc1nc2cccnc2n2c(-c3cc(OC4COCC4O)ccc3Cl)nnc12 (racemic) [Example 55] | Half-life - t½ [1]: 2.17 h |
| 0.2 nM | 3190 nM | Cc1nc2ccc(C3CC3)nc2n2c(-c3cc(C4(O)CCCOC4)ccc3Cl)nnc12 (stereo not shown) [Example 113] |  |
| 82 nM |  | Cc1nc2ccc(C(F)(F)F)nc2n2c(-c3cc(C4(O)CCOC4)ccc3Cl)nnc12 (single isomer, unassigned) [Example 115a] |  |
| 68 nM | 2500 nM | Cc1nc2cccnc2n2c(-c3cc(C4(O)CCCOC4)ccc3Cl)nnc12 (single isomer, unassigned) [Example 112b] |  |
| 22 nM |  | Cc1nc2ccc(C(F)(F)F)nc2n2c(-c3cc(C4(O)CCCOC4)ccc3Cl)nnc12 (racemic) [Example 114] |  |
|  | 2140 nM | Cc1nc2ccc(C3CC3)nc2n2c(-c3cc(C4(O)CCOC4)ccc3Cl)nnc12 (racemic) [Example 97] | half-life at 1 μM ([1]; human, pooled liver microsomes, pH 7.6, human liver microsomes, read-out: Half-life - t½): 0.85 h |
| 18 nM | 7000 nM | Cc1nc2cccnc2n2c(-c3cc(C4(O)CCCOC4)ccc3Cl)nnc12 (racemic) [Example 112] |  |
|  | 10000 nM | Cc1ccc(C2(O)CCC2)cc1-c1nnc2c(C)nc3cccnc3n12 [Example 73] | Half-life - t½ [1]: 2.17 h |

Second part, the compound before the results:

| Structure (SMILES) | IC50 (PDE 2A) | IC50 (PDE10) | other results |
| --- | --- | --- | --- |
| Cc1nc2ccc(C3CC3)nc2n2c(-c3cc(OC4COCC4O)ccc3F)nnc12 (racemic) [Example 107] | 7 nM | 22 nM |  |
| Cc1nc2ccc(C3CC3)nc2n2c(-c3cc(OC[C@H](C)O)ccc3Cl)nnc12 [Example 35a] |  |  | Half-life - t½ [1]: 2.17 h; IC50 (hERG channel): > 10000 nM |
| Cc1nc2ccc(C(F)(F)F)nc2n2c(-c3cc(OC4COCC4O)ccc3F)nnc12 (racemic) [Example 106] | 160 nM | 1940 nM |  |
| Cc1nc2ccc(C(F)(F)F)nc2n2c(-c3cc(OC4COCC4O)ccc3Cl)nnc12 (racemic) [Example 111] | 22 nM | 3980 nM |  |
| Cc1ccc(C(C)(C)O)cc1-c1nnc2c(C)nc3ccc(C4CC4)nc3n12 [Example 75] |  |  | Half-life - t½ [1]: 2.17 h; conc CSF [2]: 31 nM; conc brain [2]: 383 nM; conc plasma [2]: 1130 nM |
| Cc1ccc(C2(O)CCOCC2)cc1-c1nnc2c(C)nc3ccc(C(F)(F)F)nc3n12 [Example 96b] |  | 10000 nM |  |
| Cc1nc2cccnc2n2c(-c3cc(OCCO)ccc3Cl)nnc12 [Example 15] |  |  | IC50 (PDE 10A): > 10000 nM |
| Cc1ccc2nc(C)c3nnc(-c4cc(CO)ccc4Cl)n3c2n1 [Example 60] | 19 nM |  |  |
| Cc1nc2ccc(C(F)(F)F)nc2n2c(-c3cc(OC4COCC4O)ccc3Cl)nnc12 (single isomer, unassigned) [Example 111a] | 65 nM | 1830 nM |  |
| Cc1nc2ccc(C(F)(F)F)nc2n2c(-c3cc(OC4COCC4O)ccc3Cl)nnc12 (single isomer, unassigned) [Example 111b] | 11 nM | 2130 nM |  |
| Cc1nc2ccc(C(F)(F)F)nc2n2c(-c3cc(C(C)(C)O)ccc3Cl)nnc12 [Example 103b] |  | 10000 nM |  |
